Laboratory results as given in PubChem BioAssay AID1963841 (Molecular Pharmacology Branch, DTP, NCI, 2024).

Tested on: 439559-082-T-J2-PDC spheroid viability
Experiment: Anticancer human tumor 439559-082-T-J2-PDC patient-derived colon adenocarcinoma cell line growth inhibition [POLQ]
Conditions: spheroids with HUVEC and MSC; for IC50: curve of first compound; for viability, T/C: stronger effect = lower value
In short: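 Growth inhibition in 3D: complex spheroids (tumor PDC, HUVEC, MSC) treated with POLQ inhibitor combinations; where Cmax unknown, highest tested concentration 10 microM, except SN-38 at 1 microM.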

[1] = second compound 0.0316 µM, first compound 0.0316 µM
[2] = second compound 0.0316 µM, first compound 0.1 µM
[3] = second compound 0.0316 µM, first compound 0.316 µM
[4] = second compound 0.0316 µM, first compound 1 µM
[5] = second compound 0.1 µM, first compound 0.0316 µM
[6] = second compound 0.1 µM, first compound 0.1 µM
[7] = second compound 0.1 µM, first compound 0.316 µM
[8] = second compound 0.1 µM, first compound 1 µM
[9] = second compound 0.316 µM, first compound 0.0316 µM
[10] = second compound 0.316 µM, first compound 0.1 µM
[11] = second compound 0.316 µM, first compound 0.316 µM
[12] = second compound 0.316 µM, first compound 1 µM
[13] = second compound 1 µM, first compound 0.0316 µM
[14] = second compound 1 µM, first compound 0.1 µM
[15] = second compound 1 µM, first compound 0.316 µM
[16] = second compound 1 µM, first compound 1 µM
[17] = second compound 3.16 µM, first compound 0.0316 µM
[18] = second compound 3.16 µM, first compound 0.1 µM
[19] = second compound 3.16 µM, first compound 0.316 µM
[20] = second compound 3.16 µM, first compound 1 µM
[21] = second compound 10 µM, first compound 0.0316 µM
[22] = second compound 10 µM, first compound 0.1 µM
[23] = second compound 10 µM, first compound 0.316 µM
[24] = second compound 10 µM, first compound 1 µM
[25] = second compound 0.0316 µM, first compound 3.16 µM
[26] = second compound 0.0316 µM, first compound 10 µM
[27] = second compound 0.1 µM, first compound 3.16 µM
[28] = second compound 0.1 µM, first compound 10 µM
[29] = second compound 0.316 µM, first compound 3.16 µM
[30] = second compound 0.316 µM, first compound 10 µM
[31] = second compound 1 µM, first compound 3.16 µM
[32] = second compound 1 µM, first compound 10 µM
[33] = second compound 3.16 µM, first compound 3.16 µM
[34] = second compound 3.16 µM, first compound 10 µM
[35] = second compound 10 µM, first compound 3.16 µM
[36] = second compound 10 µM, first compound 10 µM
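Note: spheroids exposed to compounds for seven days before readout.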
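Throughout, for viability, T/C: 100% = DMSO vehicle control viability.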

Compound: CCc1c2c(nc3ccc(O)cc13)-c1cc3c(c(=O)n1C2)COC(=O)[C@]3(O)CC + COC1C(OC(N)=O)C(O)C(Oc2ccc3c(O)c(NC(=O)c4ccc(O)c(CC=C(C)C)c4)c(=O)oc3c2C)OC1(C)C
- IC50 (second compound 0.0316 µM): 487 nM
- IC50 (second compound 0.1 µM): 401 nM
- IC50 (second compound 0.316 µM): 458 nM
- IC50 (second compound 1 µM): 377 nM
- IC50 (second compound 3.16 µM): 332 nM
- IC50 (second compound 10 µM): 287 nM
- viability, T/C (second compound 0.0316 µM, first compound 0.00316 µM): 90.4%
- viability, T/C (second compound 0.0316 µM, first compound 0.01 µM): 83.8%
- viability, T/C [1]: 69.8%
- viability, T/C [2]: 69.3%
- viability, T/C [3]: 58.9%
- viability, T/C [4]: 39%
- viability, T/C (second compound 0.1 µM, first compound 0.00316 µM): 97.3%
- viability, T/C (second compound 0.1 µM, first compound 0.01 µM): 84.3%
- viability, T/C [5]: 70.7%
- viability, T/C [6]: 66.7%
- viability, T/C [7]: 57.7%
- viability, T/C [8]: 36.6%
- viability, T/C (second compound 0.316 µM, first compound 0.00316 µM): 98.5%
- viability, T/C (second compound 0.316 µM, first compound 0.01 µM): 92.2%
- viability, T/C [9]: 73.1%
- viability, T/C [10]: 67.9%
- viability, T/C [11]: 58.6%
- viability, T/C [12]: 38.5%
- viability, T/C (second compound 1 µM, first compound 0.00316 µM): 95.8%
- viability, T/C (second compound 1 µM, first compound 0.01 µM): 83.7%
- viability, T/C [13]: 65.4%
- viability, T/C [14]: 63%
- viability, T/C [15]: 59.6%
- viability, T/C [16]: 36.8%
- viability, T/C (second compound 3.16 µM, first compound 0.00316 µM): 90.5%
- viability, T/C (second compound 3.16 µM, first compound 0.01 µM): 81.3%
- viability, T/C [17]: 71.8%
- viability, T/C [18]: 62%
- viability, T/C [19]: 52.7%
- viability, T/C [20]: 36.8%
- viability, T/C (second compound 10 µM, first compound 0.00316 µM): 80.8%
- viability, T/C (second compound 10 µM, first compound 0.01 µM): 82%
- viability, T/C [21]: 64.6%
- viability, T/C [22]: 61.5%
- viability, T/C [23]: 53.1%
- viability, T/C [24]: 28.3%

Compound: Nc1ccn(C2OC(CO)C(O)C2(F)F)c(=O)n1 (stereo not drawn) + COC1C(OC(N)=O)C(O)C(Oc2ccc3c(O)c(NC(=O)c4ccc(O)c(CC=C(C)C)c4)c(=O)oc3c2C)OC1(C)C
- IC50 (second compound 0.0316 µM): 488 nM
- IC50 (second compound 0.1 µM): 477 nM
- IC50 (second compound 0.316 µM): 422 nM
- IC50 (second compound 1 µM): 395 nM
- IC50 (second compound 3.16 µM): 450 nM
- IC50 (second compound 10 µM): 411 nM
- viability, T/C [1]: 81.3%
- viability, T/C [2]: 74.4%
- viability, T/C [3]: 55.7%
- viability, T/C [4]: 39.5%
- viability, T/C [25]: 29.8%
- viability, T/C [26]: 25.6%
- viability, T/C [5]: 82.2%
- viability, T/C [6]: 74.3%
- viability, T/C [7]: 54.4%
- viability, T/C [8]: 39.4%
- viability, T/C [27]: 33%
- viability, T/C [28]: 25.3%
- viability, T/C [9]: 86.1%
- viability, T/C [10]: 76.2%
- viability, T/C [11]: 52.8%
- viability, T/C [12]: 37.5%
- viability, T/C [29]: 33%
- viability, T/C [30]: 25.6%
- viability, T/C [13]: 81.2%
- viability, T/C [14]: 77.7%
- viability, T/C [15]: 49.2%
- viability, T/C [16]: 39.5%
- viability, T/C [31]: 32.6%
- viability, T/C [32]: 25%
- viability, T/C [17]: 84.5%
- viability, T/C [18]: 73.8%
- viability, T/C [19]: 54.7%
- viability, T/C [20]: 38.5%
- viability, T/C [33]: 31.2%
- viability, T/C [34]: 26.7%
- viability, T/C [21]: 83.1%
- viability, T/C [22]: 70%
- viability, T/C [23]: 53%
- viability, T/C [24]: 38.8%
- viability, T/C [35]: 31.6%
- viability, T/C [36]: 26%

Compound: O=C(c1cc(Cc2n[nH]c(=O)c3ccccc23)ccc1F)N1CCN(C(=O)C2CC2)CC1 + COC1C(OC(N)=O)C(O)C(Oc2ccc3c(O)c(NC(=O)c4ccc(O)c(CC=C(C)C)c4)c(=O)oc3c2C)OC1(C)C
- IC50 (second compound 0.0316 µM): > 10000 nM
- IC50 (second compound 0.1 µM): > 10000 nM
- IC50 (second compound 0.316 µM): > 10000 nM
- IC50 (second compound 1 µM): > 10000 nM
- IC50 (second compound 3.16 µM): > 10000 nM
- IC50 (second compound 10 µM): > 10000 nM
- viability, T/C [1]: 101%
- viability, T/C [2]: 106%
- viability, T/C [3]: 94.4%
- viability, T/C [4]: 100%
- viability, T/C [25]: 106%
- viability, T/C [26]: 97.4%
- viability, T/C [5]: 105%
- viability, T/C [6]: 102%
- viability, T/C [7]: 100%
- viability, T/C [8]: 96.4%
- viability, T/C [27]: 105%
- viability, T/C [28]: 98.1%
- viability, T/C [9]: 102%
- viability, T/C [10]: 104%
- viability, T/C [11]: 98.9%
- viability, T/C [12]: 92.9%
- viability, T/C [29]: 107%
- viability, T/C [30]: 97.8%
- viability, T/C [13]: 108%
- viability, T/C [14]: 102%
- viability, T/C [15]: 100%
- viability, T/C [16]: 106%
- viability, T/C [31]: 107%
- viability, T/C [32]: 100%
- viability, T/C [17]: 107%
- viability, T/C [18]: 109%
- viability, T/C [19]: 94.9%
- viability, T/C [20]: 97%
- viability, T/C [33]: 105%
- viability, T/C [34]: 92.1%
- viability, T/C [21]: 97.7%
- viability, T/C [22]: 99.3%
- viability, T/C [23]: 102%
- viability, T/C [24]: 102%
- viability, T/C [35]: 116%
- viability, T/C [36]: 91.4%

Compound: O=c1[nH]cc(F)c(=O)[nH]1 + COC1C(OC(N)=O)C(O)C(Oc2ccc3c(O)c(NC(=O)c4ccc(O)c(CC=C(C)C)c4)c(=O)oc3c2C)OC1(C)C
- IC50 (second compound 0.0316 µM): > 10000 nM
- IC50 (second compound 0.1 µM): > 10000 nM
- IC50 (second compound 0.316 µM): > 10000 nM
- IC50 (second compound 1 µM): > 10000 nM
- IC50 (second compound 3.16 µM): > 10000 nM
- IC50 (second compound 10 µM): > 10000 nM
- viability, T/C [1]: 92.1%
- viability, T/C [2]: 94.8%
- viability, T/C [3]: 80.5%
- viability, T/C [4]: 74.8%
- viability, T/C [25]: 72.9%
- viability, T/C [26]: 70.1%
- viability, T/C [5]: 103%
- viability, T/C [6]: 99.7%
- viability, T/C [7]: 85.9%
- viability, T/C [8]: 72.3%
- viability, T/C [27]: 69.8%
- viability, T/C [28]: 70.1%
- viability, T/C [9]: 108%
- viability, T/C [10]: 97.5%
- viability, T/C [11]: 83.4%
- viability, T/C [12]: 74.1%
- viability, T/C [29]: 72.8%
- viability, T/C [30]: 66.8%
- viability, T/C [13]: 103%
- viability, T/C [14]: 96.7%
- viability, T/C [15]: 79.9%
- viability, T/C [16]: 75.5%
- viability, T/C [31]: 68.2%
- viability, T/C [32]: 66.9%
- viability, T/C [17]: 97.8%
- viability, T/C [18]: 98.3%
- viability, T/C [19]: 83.9%
- viability, T/C [20]: 73.2%
- viability, T/C [33]: 69.1%
- viability, T/C [34]: 61.6%
- viability, T/C [21]: 104%
- viability, T/C [22]: 88.9%
- viability, T/C [23]: 80.9%
- viability, T/C [24]: 69.7%
- viability, T/C [35]: 70.1%
- viability, T/C [36]: 64.3%
